{"source": "paper PMC7924852", "about": "“The Emericellipsins A–E from an Alkalophilic Fungus Emericellopsis alkalina Show Potent Activity against Multidrug-Resistant Pathogenic Fungi” (Journal of Fungi, 2021)", "key": {"Aspergillus niger 1133m": {"tested_on": "Aspergillus niger 1133m", "assay": "Sensititre YeastOne antifungal susceptibility test", "assay_type": "cell-based"}, "A. fumigatus 390m": {"tested_on": "A. fumigatus 390m", "assay": "Sensititre YeastOne antifungal susceptibility test", "assay_type": "cell-based", "conditions": "Aspergillus fumigatus"}, "A. terreus 497 [1]": {"tested_on": "A. terreus 497", "assay": "Sensititre YeastOne antifungal susceptibility test", "assay_type": "cell-based", "conditions": "Aspergillus terreus"}, "Candida albicans 1402": {"tested_on": "Candida albicans 1402", "assay": "Sensititre YeastOne antifungal susceptibility test", "assay_type": "cell-based"}, "C. glabrata 1402": {"tested_on": "C. glabrata 1402", "assay": "Sensititre YeastOne antifungal susceptibility test", "assay_type": "cell-based", "conditions": "Nakaseomyces glabratus"}, "C. krusei 1447": {"tested_on": "C. krusei 1447", "assay": "Sensititre YeastOne antifungal susceptibility test", "assay_type": "cell-based", "conditions": "Pichia kudriavzevii"}, "C. tropicalis 156": {"tested_on": "C. tropicalis 156", "assay": "Sensititre YeastOne antifungal susceptibility test", "assay_type": "cell-based", "conditions": "Candida tropicalis"}, "C. parapsilosis 571": {"tested_on": "C. parapsilosis 571", "assay": "Sensititre YeastOne antifungal susceptibility test", "assay_type": "cell-based", "conditions": "Lodderomyces parapsilosis"}, "[2]": {"tested_on": "Cryptococcus neoformans 297", "assay": "Sensititre YeastOne antifungal susceptibility test", "assay_type": "cell-based"}, "Cr. laurentii 325m": {"tested_on": "Cr. laurentii 325m", "assay": "Sensititre YeastOne antifungal susceptibility test", "assay_type": "cell-based", "conditions": "Papiliotrema laurentii"}, "[3]": {"tested_on": "Aspergillus niger ATCC 16404", "assay": "Disc-diffusion antifungal assay", "assay_type": "cell-based", "conditions": "40 µg/disc; A. niger ATCC 16404"}, "A. niger 1133 m [4]": {"tested_on": "A. niger 1133 m", "assay": "Disc-diffusion antifungal assay", "assay_type": "cell-based, Aspergillus niger", "conditions": "40 µg/disc, pathogenic clinical isolate"}, "A. fumigatus VKM F-37 [5]": {"tested_on": "A. fumigatus VKM F-37", "assay": "Disc-diffusion antifungal assay", "assay_type": "cell-based, Aspergillus fumigatus", "conditions": "40 µg/disc"}, "A. fumigatus 390 m [6]": {"tested_on": "A. fumigatus 390 m", "assay": "Disc-diffusion antifungal assay", "assay_type": "cell-based, Aspergillus fumigatus", "conditions": "40 µg/disc, pathogenic clinical isolate"}, "A. terreus 3 K [7]": {"tested_on": "A. terreus 3 K", "assay": "Disc-diffusion antifungal assay", "assay_type": "cell-based", "conditions": "40 µg/disc"}, "A. terreus 497 [8]": {"tested_on": "A. terreus 497", "assay": "Disc-diffusion antifungal assay", "assay_type": "cell-based", "conditions": "40 µg/disc; A. terreus 497, pathogenic clinical isolate"}, "[9]": {"tested_on": "reference and clinical strains of Aspergillus", "assay": "Disc-diffusion antifungal assay, Aspergillus strains", "assay_type": "cell-based", "conditions": "disc-diffusion, reference and clinical strains of Aspergillus"}, "A. niger ATCC 16404": {"tested_on": "A. niger ATCC 16404", "assay": "Broth two-fold microdilution MIC (CLSI)", "assay_type": "cell-based, Aspergillus niger", "conditions": "A. niger ATCC 16404; RPMI 1640 pH 7.0, 35 °C, 48 h, no visible growth"}, "A. niger 1133 m [10]": {"tested_on": "A. niger 1133 m", "assay": "Broth two-fold microdilution MIC (CLSI)", "assay_type": "cell-based, Aspergillus niger", "conditions": "A. niger 1133 m clinical isolate; RPMI 1640 pH 7.0, 35 °C, 48 h"}, "A. terreus 3 K [11]": {"tested_on": "A. terreus 3 K", "assay": "Broth two-fold microdilution MIC (CLSI)", "assay_type": "cell-based", "conditions": "A. terreus 3 K; RPMI 1640 pH 7.0, 35 °C, 48 h"}, "A. terreus 497 [12]": {"tested_on": "A. terreus 497", "assay": "Broth two-fold microdilution MIC (CLSI)", "assay_type": "cell-based", "conditions": "A. terreus 497 clinical isolate; RPMI 1640 pH 7.0, 35 °C, 48 h"}, "A. fumigatus VKM F-37 [13]": {"tested_on": "A. fumigatus VKM F-37", "assay": "Broth two-fold microdilution MIC (CLSI)", "assay_type": "cell-based, Aspergillus fumigatus", "conditions": "A. fumigatus VKM F-37; RPMI 1640 pH 7.0, 35 °C, 48 h"}, "A. fumigatus 390 m [14]": {"tested_on": "A. fumigatus 390 m", "assay": "Broth two-fold microdilution MIC (CLSI)", "assay_type": "cell-based, Aspergillus fumigatus", "conditions": "A. fumigatus 390 m clinical isolate; RPMI 1640 pH 7.0, 35 °C, 48 h"}}, "note": "Read-outs that look alike come from different tables or passages of the source. Starred links: 1 amine or outer side, 2 acyl side, 3 side chain; linkers in the order of their positions; H or OH if unused. Positions of bridges follow the written chain, without caps; N, C: chain ends. Non-standard residues stand in square brackets, D forms with d. Residues, ends and D or L forms follow the SMILES beside them. *: point of attachment. pTerphenylCO(4''-OnC5H11) = CCCCCOc1ccc(-c2ccc(-c3ccc(C(=O)*)cc3)cc2)cc1; Orn(4R-OH,5R-OH) = O=C([C@H](C[C@@H](O)[C@@H](O)N[*:3])N[*:1])[*:2]; hTyr(3S-OH,4S-OH) = N[C@H](C(=O)O)[C@H](O)[C@@H](O)c1ccc(O)cc1; Pro(3S-OH,4S-Me) = C[C@H]1CN[C@H](C(=O)O)[C@H]1O; Hyp = O=C(O)[C@@H]1C[C@@H](O)CN1", "data": [{"molecule": "CCCCCOc1ccc(-c2ccc(-c3ccc(C(=O)N[C@H]4C[C@@H](O)[C@@H](O)NC(=O)[C@@H]5[C@@H](O)[C@@H](C)CN5C(=O)[C@H]([C@@H](C)O)NC(=O)[C@H]([C@H](O)[C@@H](O)c5ccc(O)cc5)NC(=O)[C@@H]5C[C@@H](O)CN5C(=O)[C@H]([C@@H](C)O)NC4=O)cc3)cc2)cc1", "note": "[AND, anidulafungin] ({pTerphenylCO(4''-OnC5H11)}-[Orn(4R-OH,5R-OH)]T[Hyp][hTyr(3S-OH,4S-OH)]T[Pro(3S-OH,4S-Me)]; lactam 1-C)", "values": [{"measurement": "MIC", "setting": "Aspergillus niger 1133m; Aspergillus niger, 1133M", "result": "> 8", "unit": "µg/mL"}, {"measurement": "MIC", "setting": "A. fumigatus 390m; 390M", "result": "> 8", "unit": "µg/mL"}, {"measurement": "MIC", "setting": "A. terreus 497 [1]; 497", "result": "> 8", "unit": "µg/mL"}, {"measurement": "MIC", "setting": "Candida albicans 1402; Candida albicans, 1402", "result": 0.06, "unit": "µg/mL"}, {"measurement": "MIC", "setting": "C. glabrata 1402; 1402", "result": 0.06, "unit": "µg/mL"}, {"measurement": "MIC", "setting": "C. krusei 1447; 1447", "result": 0.03, "unit": "µg/mL"}, {"measurement": "MIC", "setting": "C. tropicalis 156; 156", "result": 0.12, "unit": "µg/mL"}, {"measurement": "MIC", "setting": "C. parapsilosis 571; 571", "result": 2, "unit": "µg/mL"}, {"measurement": "MIC", "setting": "[2]; Cryptococcus neoformans, 297", "result": "> 8", "unit": "µg/mL"}, {"measurement": "MIC", "setting": "Cr. laurentii 325m; 325M", "result": "> 8", "unit": "µg/mL"}]}, {"molecule": "C[C@@H](c1ncncc1F)[C@](O)(Cn1cncn1)c1ccc(F)cc1F", "note": "[VOR, voriconazole]", "values": [{"measurement": "MIC", "setting": "Aspergillus niger 1133m; Sensititre YeastOne, Aspergillus niger 1133m clinical isolate, read-out: MIC", "result": 8, "unit": "µg/mL"}, {"measurement": "MIC", "setting": "A. fumigatus 390m; Sensititre YeastOne, A. fumigatus 390m clinical isolate, read-out: MIC", "result": 0.5, "unit": "µg/mL"}, {"measurement": "MIC", "setting": "A. terreus 497 [1]; Sensititre YeastOne, A. terreus 497 clinical isolate, read-out: MIC", "result": 0.25, "unit": "µg/mL"}, {"measurement": "MIC", "setting": "Candida albicans 1402; Sensititre YeastOne, Candida albicans 1402 clinical isolate, read-out: MIC", "result": 1, "unit": "µg/mL"}, {"measurement": "MIC", "setting": "C. glabrata 1402; Sensititre YeastOne, C. glabrata 1402 clinical isolate, read-out: MIC", "result": 8, "unit": "µg/mL"}, {"measurement": "MIC", "setting": "C. krusei 1447; Sensititre YeastOne, C. krusei 1447 clinical isolate, read-out: MIC", "result": 1, "unit": "µg/mL"}, {"measurement": "MIC", "setting": "C. tropicalis 156; Sensititre YeastOne, C. tropicalis 156 clinical isolate, read-out: MIC", "result": 4, "unit": "µg/mL"}, {"measurement": "MIC", "setting": "C. parapsilosis 571; Sensititre YeastOne, C. parapsilosis 571 clinical isolate, read-out: MIC", "result": 1, "unit": "µg/mL"}, {"measurement": "MIC", "setting": "[2]; Sensititre YeastOne, Cryptococcus neoformans 297 clinical isolate, read-out: MIC", "result": 0.25, "unit": "µg/mL"}, {"measurement": "MIC", "setting": "Cr. laurentii 325m; Sensititre YeastOne, Cr. laurentii 325m clinical isolate, read-out: MIC", "result": 0.5, "unit": "µg/mL"}]}, {"molecule": "CC(=O)N1CCN(c2ccc(OCC3COC(Cn4ccnc4)(c4ccc(Cl)cc4Cl)O3)cc2)CC1", "note": "(stereo not shown) [KZ, ketoconazole]", "values": [{"measurement": "MIC", "setting": "Aspergillus niger 1133m; Aspergillus niger, 1133M", "result": 16, "unit": "µg/mL"}, {"measurement": "MIC", "setting": "A. fumigatus 390m; 390M", "result": 8, "unit": "µg/mL"}, {"measurement": "MIC", "setting": "A. terreus 497 [1]; 497", "result": 8, "unit": "µg/mL"}, {"measurement": "MIC", "setting": "Candida albicans 1402; Candida albicans, 1402", "result": 4, "unit": "µg/mL"}, {"measurement": "MIC", "setting": "C. glabrata 1402; 1402", "result": 4, "unit": "µg/mL"}, {"measurement": "MIC", "setting": "C. krusei 1447; 1447", "result": 0.5, "unit": "µg/mL"}, {"measurement": "MIC", "setting": "C. tropicalis 156; 156", "result": 0.5, "unit": "µg/mL"}, {"measurement": "MIC", "setting": "C. parapsilosis 571; 571", "result": 0.5, "unit": "µg/mL"}, {"measurement": "MIC", "setting": "[2]; Cryptococcus neoformans, 297", "result": 0.06, "unit": "µg/mL"}, {"measurement": "MIC", "setting": "Cr. laurentii 325m; 325M", "result": 0.12, "unit": "µg/mL"}]}, {"molecule": "Methyldecanoyl-MePro-AHMOD-Ser-Aib-Ile-Iva-βAla-Alaol-Glyol [EmiC, emericellipsin C, homologue of emericellipsin A, nonribosomal peptaibol]", "values": [{"measurement": "Zone of Inhibition", "setting": "[3]", "result": "9 ± 0.31", "unit": "mm"}, {"measurement": "Zone of Inhibition", "setting": "A. niger 1133 m [4]", "result": 0, "unit": "mm"}, {"measurement": "Zone of Inhibition", "setting": "A. fumigatus VKM F-37 [5]", "result": 0, "unit": "mm"}, {"measurement": "Zone of Inhibition", "setting": "A. fumigatus 390 m [6]", "result": 0, "unit": "mm"}, {"measurement": "Zone of Inhibition", "setting": "A. terreus 3 K [7]", "result": 0, "unit": "mm"}, {"measurement": "Zone of Inhibition", "setting": "A. terreus 497 [8]", "result": 0, "unit": "mm"}, {"measurement": "antifungal activity against Aspergillus strains (in words)", "setting": "[9]", "result": "low activity only against A. niger strains"}, {"measurement": "Minimal Inhibitory Concentration (MIC)", "setting": "A. niger ATCC 16404", "result": 32, "unit": "µg/mL"}, {"measurement": "Minimal Inhibitory Concentration (MIC)", "setting": "A. niger 1133 m [10]", "result": 32, "unit": "µg/mL"}, {"measurement": "Minimal Inhibitory Concentration (MIC)", "setting": "A. terreus 3 K [11]", "result": 8, "unit": "µg/mL"}, {"measurement": "Minimal Inhibitory Concentration (MIC)", "setting": "A. terreus 497 [12]", "result": 8, "unit": "µg/mL"}, {"measurement": "Minimal Inhibitory Concentration (MIC)", "setting": "A. fumigatus VKM F-37 [13]", "result": 16, "unit": "µg/mL"}, {"measurement": "Minimal Inhibitory Concentration (MIC)", "setting": "A. fumigatus 390 m [14]", "result": 16, "unit": "µg/mL"}]}]}
